Data: a melting point compilation (Tetko et al.; mined from patent text by program, amines drawn as free bases though some values may be those of a salt)

First: O=C(O)c1cnn(-c2ccc(Cl)cc2Cl)c1C(F)(F)F
Second: Cc1c(Cl)ccc(C(=O)O)c1Cl
The melting point of the first is lower: 154 to 155 °C for the first, 173 to 175 °C for the second.

First: COc1ccc2c(c1)c(C)cc(=O)n2Cc1ccccc1Cl
Second: COc1ccc2c(c1)c(CCO)c(C)n2-c1ccnc2cc(Cl)ccc12
The melting point of the first is higher: 177 to 179 °C for the first, 143 to 145 °C for the second.

First: COc1cccc(-c2cccc(OC3SCC(O)C(O)C3O)c2)n1 (stereo not drawn)
Second: COc1ccc(C2Sc3c(ccc4ccccc34)NC(=O)C2O)cc1 (stereo not drawn)
The melting point of the first is lower: 206 °C for the first, 232 to 234 °C for the second.

First: CC(=O)NC[C@H]1CN(c2ccc(N3CCC(n4nccn4)CC3)c(F)c2)C(=O)O1
Second: CC(=O)NC[C@H]1CN(c2ccc(N3CCC(F)(CI)CC3)c(F)c2)C(=O)O1
The melting point of the first is higher: 197 °C for the first, 166 to 168 °C for the second.

First: COc1cc(CN2N=C(c3ccc(OC)c(OC)c3)[C@@H]3CCCC[C@@H]3C2=O)cc(OC)c1 (relative stereo)
Second: COc1ccc(Nc2nc(Nc3ccc(OC)c(F)c3)nc(OCC3CCCCC3)n2)cc1F
The melting point of the first is lower: 114 to 117 °C for the first, 181 °C for the second.

First: CN(CCN(O)C(N)=O)Cc1cccc(Oc2ccc(Cl)cc2)c1
Second: CCN(CC)c1ccc(-n2c(CC(=O)O)c(C(=O)O)c3cc(Oc4ccc(Cl)cc4)ccc32)cc1
The melting point of the first is lower: 111 to 113 °C for the first, 210 °C for the second.

First: O=C(O)[C@@H](CCN1C(=O)c2ccccc2C1=O)Oc1c(Br)cc(-c2c(Br)ccc3sc4ccccc4c23)cc1Br
Second: COC(=O)CCC1(NC(=O)c2cc3c4ccccc4n(C(C)=O)c3cn2)C(=O)N(c2ccccc2)c2ccccc21 (stereo not drawn)
The melting point of the first is lower: 130 to 132 °C for the first, 189 to 192 °C for the second.

First: CCCCNNc1nc(C)c(C(=O)OCC)c(Cl)c1[N+](=O)[O-]
Second: CCC(C)Nc1c(C(F)(F)F)cc([N+](=O)[O-])c(Cl)c1[N+](=O)[O-] (stereo not drawn)
The melting point of the first is lower: 59 to 61 °C for the first, 90.5 to 91.5 °C for the second.

First: FC(F)(F)c1cc(-c2ncn(CCCN3CCOCC3)c2-c2ccncc2)cc(C(F)(F)F)c1
Second: Cc1cc(-c2ncn3c(C(F)(F)F)cc(-c4ccc(C(F)(F)F)cc4)nc23)ccn1
The melting point of the first is lower: 136 to 138 °C for the first, 257 °C for the second.

`O=C(CCCCl)Nc1cccc(Cc2n[nH]c(=O)c3ccccc23)c1` and `O=C(CCCO)NCc1cccc(Nc2n[nH]c3ncnc(Nc4cccc(Cl)c4)c23)c1` cannot be ordered by melting point: 180 to 184 °C for the first, 182 to 184 °C for the second.

Compared with `Fc1ccc(-c2c[nH]cn2)cc1`, `COc1ccccc1-c1cnc(-c2ccccc2)[nH]c1=O` is higher in melting point: 130 to 132 °C for the first, 245 to 247 °C for the second.

First: CC(=O)NC[C@H]1CN(c2cc(F)c(N3CCC(n4cccc4)CC3)c(F)c2)C(=O)O1
Second: O=C1NC(c2c[nH]c3ccccc23)C(=O)N1CCCN1CCCCC1 (stereo not drawn)
The melting point of the first is lower: 186 to 188 °C for the first, 233 to 234 °C for the second.

First: CC(Cc1c[nH]c2ccccc12)C1=CCNCC1 (stereo not drawn)
Second: O=Cc1c[nH]c2cc(F)c(OCc3ccccc3)cc12
The melting point of the first is lower: 125 °C for the first, 190 °C for the second.

Compared with `CCCC1=C(C#N)C(c2ccccc2Cl)c2c(n[nH]c2-c2cccs2)N1` (stereo not drawn), `CCN1C(=O)C(C)(C)c2cc(-c3nc4ccccc4[nH]3)ccc21` is higher in melting point: 256 °C for the first, 263 to 265 °C for the second.

Compared with `CCCCc1nc2ccc(C)c(C(=O)O)c2n1Cc1ccc(-c2ccccc2-c2nnn[nH]2)cc1`, `O=c1[nH]sc2nc(-c3ccccc3)nc(CCc3ccccc3)c12` is lower in melting point: 298 to 299 °C for the first, 144 to 147 °C for the second.

First: CN(C)C(=O)Nc1ccc2c(c1)C(=O)NC(=O)C2(C)C
Second: CC(=O)Nc1c([N+](=O)[O-])cc(Br)cc1[N+](=O)[O-]
The melting point of the first is higher: 256 to 258 °C for the first, 238 to 239 °C for the second.

First: CSC(Nc1cccc(CNC(=O)OC(C)(C)C)c1)=C(C#N)C#N
Second: Cc1nc(Oc2ccccc2)c2nc(C)n(CCNC(=O)OC(C)(C)C)c2c1C
The melting point of the first is lower: 150 to 151 °C for the first, 180 to 182 °C for the second.

First: CC(=O)c1sc(N2CCN(CC3CC3)C2=O)nc1C
Second: Cc1cccc2c(=O)[nH]c(C3CCN(C)CC3)cc12
The melting point of the first is lower: 103 to 104 °C for the first, 196 to 198 °C for the second.

First: COc1cccc(C=O)c1OS(=O)(=O)C(F)(F)F
Second: COc1ccccc1OCCCOS(N)(=O)=O
The melting point of the first is lower: 29.5 to 31.5 °C for the first, 80 to 83 °C for the second.

First: O=C1Nc2cc3c(cc2OC1CCCBr)CCCC3 (stereo not drawn)
Second: CNC(=O)/C=C1\CCc2c(Cl)cc(F)cc21
The melting point of the first is lower: 139 to 140 °C for the first, 173 to 175 °C for the second.

First: Cc1csc(C(=O)OC(C)C)c1S(N)(=O)=O
Second: COc1ccc(C2C(=O)OC3=CC(O)(OC(C)=O)C=CC3=C2C)c(OC)c1 (stereo not drawn)
The melting point of the first is lower: 76 °C for the first, 146 to 148 °C for the second.

Compared with `O=C1CC(c2ccccc2OCc2ccccc2)=Nc2ccc(N3CCOCC3)cc21`, `Cc1cccc(-c2sc(N)nc2-c2ccnc(-c3ccc(N4CCOCC4)cc3)c2)n1` is lower in melting point: 281 to 283 °C for the first, 246 °C for the second.

First: CC(C)c1cccc(C(C)C)c1NC(=O)NCC1(c2ccc3ccccc3c2)CCC1
Second: CCOc1cc(NC(=O)CCC(=O)c2ccc(OCC)c(OCC)c2)nc(-c2ccccc2)c1
The melting point of the first is lower: 146 to 150 °C for the first, 172 to 173 °C for the second.

First: CCc1nc(-c2ccc(OCCCn3ccnc3C)cc2)no1
Second: Oc1ccc(-c2nc(COc3ccc(CCCn4ccnc4)cc3)co2)cc1
The melting point of the first is lower: 77 to 78.5 °C for the first, 182 to 183 °C for the second.

First: FC(F)(F)c1ccc(Nc2nccc(-c3cccc(Cl)c3)n2)cc1
Second: CCCc1ccc(NC(=O)c2ccccc2NCc2ccncc2)cc1C(F)(F)F
The melting point of the first is higher: 202 °C for the first, 134 to 135 °C for the second.

Compared with `CN1CC(CCCl)Oc2c(ccc3ccccc23)C1=S` (stereo not drawn), `Cc1cccc(C)c1NC(=O)CN1CCN(CC(O)C2COc3ccccc3O2)CC1` (stereo not drawn) is higher in melting point: 167 to 170 °C for the first, 175 to 176 °C for the second.

First: CONC(=O)NC1CCCc2ccccc21 (stereo not drawn)
Second: O=C(O)CC1c2ccccc2CCc2ccccc21
The melting point of the first is lower: 122 to 125 °C for the first, 163 to 165 °C for the second.

First: O=C(O)[C@H](Cc1ccc(C(F)(F)F)cc1)[C@@H](O)c1ccc(Cl)nc1 (racemic)
Second: CCCCC(Cc1ccc(OCCNC(=O)c2ccc(O)nc2)cc1)C(=O)O (stereo not drawn)
The melting point of the first is higher: 145 to 146 °C for the first, 69 to 71 °C for the second.

First: O=C(C=P(c1ccccc1)(c1ccccc1)c1ccccc1)CCCCO
Second: O=C(Nc1ccc(C(=O)N2CCC=Cc3ccccc32)cc1)c1ccccc1Cl
The melting point of the first is lower: 121 to 124 °C for the first, 205 to 207 °C for the second.

First: COc1cc(OC)nc(Oc2ccccc2C=NO)n1
Second: COC(=O)C1Cc2c([nH]c3ccccc23)C(c2cc(OC)ccc2OC)N1C(=O)CCl (stereo not drawn)
The melting point of the first is higher: 125 to 128 °C for the first, 108 to 111 °C for the second.

First: Clc1ccc2c(c1)CCN(c1ccccc1)C2
Second: O=c1c2c(n(-c3ccccc3)c3ncccc13)CCC2
The melting point of the first is lower: 67 to 70 °C for the first, 235 to 237 °C for the second.

First: CCOC(=O)c1c(N2CCN(C(=O)c3cccs3)CC2)c2sccc2n(CC(=O)c2ccccc2)c1=O
Second: O=C1OC2(CCN(C(=O)Nc3cnc(-c4ccccc4)cn3)CC2)c2ccc(F)cc21
The melting point of the first is higher: 240 °C for the first, 236 to 238 °C for the second.

First: Cc1cc(CNC2CC2)cc(C)c1Oc1ccc([N+](=O)[O-])c(Nc2ccc(C#N)cc2)n1
Second: N#Cc1ccc(C2(COc3cccc4cc(NS(=O)(=O)C(F)(F)F)ccc34)N=CNO2)cc1 (stereo not drawn)
The melting point of the first is lower: 175 to 177 °C for the first, 184 to 185 °C for the second.

First: O=c1[nH]c2cc(Cl)ccc2c(=O)c2sccc12
Second: Nc1c([N+](=O)[O-])ccc(Oc2cccc(Cl)c2)c1Cl
The melting point of the first is higher: greater than 280 °C for the first, 101 to 102 °C for the second.

First: CCCCC(O)(Cn1ccnc1)c1ccc(Cl)cc1Cl (stereo not drawn)
Second: COC(=O)CCCc1cc2nc(Cl)ccc2n1S(=O)(=O)c1ccc2c(c1)OCO2
The melting point of the first is lower: 78 to 80 °C for the first, 120 °C for the second.

First: CCCCCCCCC(=O)NCC(=O)O
Second: CCCCCCCCC(=CC=C(O)C(=O)OCC)C(=O)OCC
The melting point of the first is higher: 106 to 109 °C for the first, 58 °C for the second.

First: CCCCOC(=O)c1cc(O)c(O)c(C#N)c1
Second: O=C1c2ccc(O)cc2OCN1CCO[N+](=O)[O-]
The melting point of the first is higher: 135 to 140 °C for the first, 131 to 133 °C for the second.

`COc1c(NC(=O)c2ccc(C)c(-n3cc(C(=O)NCC4CCN(C)CC4)nn3)c2)cc(C(C)(C)C)cc1NS(C)(=O)=O` and `CNC(=O)NCCN1CCC(Nc2nc3ccccc3n2Cc2cnc(C)o2)CC1` cannot be ordered by melting point: 202 to 203 °C for the first, 203 °C for the second.

First: CC(=O)NC1C(Cl)OC(COC(C)=O)C(OC(C)=O)C1OC(C)=O (stereo not drawn)
Second: CCCCCCCCc1ccc(CCC(COC(C)=O)(COC(C)=O)NC(C)=O)cc1
The melting point of the first is higher: 143 °C for the first, 112 °C for the second.

Compared with `CNC1(c2ccccc2Cl)C(=O)N(S(=O)(=O)c2ccc(NC(=O)c3ccccc3Cl)cc2)c2ccc(Cl)cc21` (stereo not drawn), `CS(=O)(=O)c1ccc(-c2cnn(-c3cc(Cl)cc(Cl)c3)c(=O)c2-c2ccc(F)cc2)cc1` is higher in melting point: 221 to 222 °C for the first, 289 to 294 °C for the second.

First: CSC(=NS(=O)(=O)c1cccnc1)SC
Second: CC(C)C(=O)N1N=Cc2ccccc2C1C#N (stereo not drawn)
The melting point of the first is lower: 115 to 118 °C for the first, 144 to 146 °C for the second.

Compared with `COc1cc2c(=O)c(S(C)=O)cn(C)c2cc1F` (stereo not drawn), `CC[C@@H](Cc1ccc(OC)c(C(=O)NCc2ccc(Oc3ccc(F)c(F)c3)cc2)c1)C(=O)O` is lower in melting point: 263 to 264 °C for the first, 118 to 120 °C for the second.

First: COC1=CC(N)C(C)(Cl)C=C1 (stereo not drawn)
Second: Cc1cc(Nc2nccc(N3CCC(C)CC3)n2)[nH]n1
The melting point of the first is lower: 83 to 85 °C for the first, 193 to 195 °C for the second.

Compared with `CN1C[C@H](CN2CCN(C(c3ccccc3)c3ccccc3)CC2)C=C2c3cccc4[nH]c(Cl)c(c34)C[C@H]21`, `CC(C)(C)OC(=O)NC(Cc1ccccc1)C(O)CNCC(O)C(Cc1ccccc1)NC(=O)OC1c2ccccc2CC1O` (stereo not drawn) is lower in melting point: 208 °C for the first, 131 to 133 °C for the second.

Compared with `CC(C)(C)c1cc(OCc2n[nH]c(=S)o2)cc(C(C)(C)C)c1O`, `COc1cc(Nc2c(C#N)cnc3cc(/C=C/CCO[Si](C)(C)C(C)(C)C)c(OC)cc23)c(Cl)cc1Cl` is lower in melting point: 195 to 196 °C for the first, 97 to 99 °C for the second.

First: COc1ccc(-n2nc(Sc3ccccc3C)c(C)c(C#N)c2=O)cc1
Second: CCN(CC)CCn1nc2c3c(c(CNS(C)(=O)=O)ccc31)Sc1ccccc1-2
The melting point of the first is higher: 144 to 146 °C for the first, 120 to 125 °C for the second.

Compared with `Cc1c(-c2ccc(F)cc2)n(Cc2ccc(OCCN3CCCCCC3)cc2)c2ccc(O)cc12`, `CCOCc1nc2c(N)nc3ccccc3c2n1CC1(O)CCCC1` is lower in melting point: 181 to 184 °C for the first, 156 to 158 °C for the second.

First: CCC(C)OC(=O)C(Br)=CC1C(C(=O)OC(C#N)c2cccc(Oc3ccccc3)c2)C1(C)C (stereo not drawn)
Second: CCCCCN(CCCOC)C(=O)C(CCC(=O)O)CS(=O)(=O)c1ccc2ccccc2c1 (stereo not drawn)
The melting point of the first is lower: 76 °C for the first, 79 to 82 °C for the second.

First: COCCOCCCOc1ccc(/C=C/C(=O)O)c(Oc2ncc(C(F)(F)F)cc2Cl)c1
Second: O=C(O)C[C@H](NC(=O)CNC(=O)c1csc(NC(=O)NCc2ccccc2)n1)C(=O)Nc1ccccc1C(=O)O
The melting point of the first is lower: 103 to 104 °C for the first, 192 °C for the second.
